Reference: patent publication US20240122932A1, “Methods of Treating B-Cell Malignancy Using Bcl-2 Inhibitor” (BeiGene Switzerland GmbH, priority 2021, published 2024)

System: JeKo-1 human mantle cell lymphoma (MCL) subcutaneous xenograft
Experiment: JeKo-1 human MCL subcutaneous xenograft model, Bcl-2 inhibitor with BTK inhibitor
Format: in vivo, NCG mice
Details: 20 mpk p.o. BID
Experimental: JeKo-1 cells were maintained as suspension cell cultures at 37° C. in a 5% CO2 atmosphere. Five to six-week-old female NCG mice were purchased from Gempharmatech of Information Technology Center. All animals were maintained under specific pathogen free (SPF) “full barrier” condition with free access to food and water. […] Mice were fed with complete granulated feed with Co60 radiosterilization (Beijing Ke Ao Xie Li Feed Co., Ltd.). All experiments were carried out in accordance with BeiGene's IACUC.
Re-suspended cells were placed on ice prior to inoculation. […] Each animal was injected subcutaneously with 1×10^7 cells in 200 μL of cell suspension in the right front flank via a 26-gauge needle. After implantation, primary tumor volume was measured in two dimensions using a caliper.
Transplanted animals were randomized into 8 groups with 10 mice per group on day 0 according to transplantation sequence and body weight. […] Treatments were administered by oral gavage (p.o.) in a volume of 10 mL/kg body weight. Body weight was assessed immediately before dosing and volume dosed was adjusted accordingly.
Individual body weight was recorded twice weekly, with mice being monitored daily for clinical signs of toxicity for the duration of the study. Mice were euthanized using carbon dioxide when their tumor volume reached 2,000 mm^3, the tumor was ulcerated, or body weight loss exceeded 20%.
Tumor volume (TV) was calculated using the formula: TV=0.5×(a×b^2) where a and b are the long and short diameters of the tumor, respectively. […] (treated t=treated tumor volume at time t, vehicle t=vehicle tumor volume at time t)

## C=CC(=O)N1CCC([C@@H]2CCNc3c(C(N)=O)c(-c4ccc(Oc5ccccc5)cc4)nn32)CC1 [Compound B, (S)-7-(1-acryloylpiperidin-4-yl)-2-(4-phenoxyphenyl)-4,5,6,7-tetra-hydropyrazolo[1,5-a]pyrimidine-3-carboxamide, reference compound]
  Mean TV (D 21) (mm^3 ± SEM): 799.8 ± 73.2 mm^3
Day 21, 20 mg/kg
  TGI (%): 56%
